Measurements from patent US20240317749A1, “THERAPEUTIC COMPOUNDS” (priority 2021, published 2024).
Values after ≈ are worked out from the molar mass of the structure shown.

What was measured:
[1] = test system: Methicillin-resistant S. aureus (MRSA) ATCC 33591; assay: MIC assay, CLSI broth microdilution in CAMH broth; assay type: cell-based, Staphylococcus aureus
Procedure: MIC assays for various Gram-negative and Gram-positive strains were conducted in accordance with the CLSI guidelines for broth microdilution. A 96-well plate containing CAMH broth with 2-fold serial dilution of compounds was inoculated with log-phase bacterial at 5×10^5 CFU/mL. The final volume in each well was 100 μL. Each compound was tested in duplicate. The microtiter plates were incubated in an aerobic environment for 18 hours at 37° C. Then the bacterial growth was tested by reading the plate with a SpectraMax iD5 plate reader (Molecular Devices, Inc.) at 600 nm. The MIC was defined as the lowest compound concentration that inhibited bacteria growth. […]

[2] = test system: Methicillin-susceptible S. aureus (MSSA) ATCC 19636; assay: MIC assay, CLSI broth microdilution in CAMH broth; assay type: cell-based, Staphylococcus aureus
Procedure: (§1) MIC assays for various Gram-negative and Gram-positive strains were conducted in accordance with the CLSI guidelines for broth microdilution. A 96-well plate containing CAMH broth with 2-fold serial dilution of compounds was inoculated with log-phase bacterial at 5×10^5 CFU/mL. The final volume in each well was 100 μL. Each compound was tested in duplicate. The microtiter plates were incubated in an aerobic environment for 18 hours at 37° C. Then the bacterial growth was tested by reading the plate with a SpectraMax iD5 plate reader (Molecular Devices, Inc.) at 600 nm. The MIC was defined as the lowest compound concentration that inhibited bacteria growth.
(§2) The following Gram-negative and Gram-positive strains were used in the aerobic MIC procedure: • P. aeruginosa ATCC 27853 • A. baumannii ATCC 19606 • E. coli ATCC 25922 • E. coli W4573 • E. coli N43 • K. pneumoniae ATCC 10031 • K. pneumoniae ATCC 13883 • S. sonnei ATCC 29930 • P. mirabilis ATCC 29906 • Methicillin-susceptible S. aureus (MSSA) ATCC 19636 • Methicillin-resistant S. aureus (MRSA) ATCC 33951

[3] = test system: P. aeruginosa ATCC 27853; assay: MIC assay, CLSI broth microdilution in CAMH broth; assay type: cell-based, Pseudomonas aeruginosa; conditions: P. aeruginosa ATCC 278538
Procedure: as §1, §2

[4] = test system: K. pneumoniae ATCC 10031; assay: MIC assay, CLSI broth microdilution in CAMH broth; assay type: cell-based, Klebsiella pneumoniae; conditions: K. pneumonias ATCC 10031
Procedure: as §1, §2

[5] = test system: K. pneumoniae ATCC 13883; assay: MIC assay, CLSI broth microdilution in CAMH broth; assay type: cell-based, Klebsiella pneumoniae; conditions: K. pneumonias ATCC 13883
Procedure: as §1, §2

[6] = test system: E. coli W4573; assay: MIC assay, CLSI broth microdilution in CAMH broth; assay type: cell-based, Escherichia coli
Procedure: as §1, §2

[7] = test system: P. mirabilis ATCC 29906; assay: MIC assay, CLSI broth microdilution in CAMH broth; assay type: cell-based, Proteus mirabilis
Procedure: as §1, §2

[8] = test system: N. gonorrhoeae ATCC 49226; assay: MIC assay for N. gonorrhoeae, broth microdilution in Todd-Hewitt (TH) broth; assay type: cell-based; conditions: Neisseria gonorrhoeae, ATCC49226; Antibacterial Activity against N. gonorrhoeae ATCC 49226 in TH
Description: MIC assays for N. gonorrhoeae were done using the ATCC 49226 strain. The procedure guidelines recommended by the Clinical and Laboratory Standards Institute (CLSI) for the broth microdilution MIC assay were modified by substituting […]. Also, the recommended bacterial inoculum was modified to meet the high inoculum demands needed for N. gonorrhoeae growth. A 96-well plate containing TH broth with 2-fold serial dilution of compounds was inoculated with log-phase bacterial at 2.5×10^7 CFU/mL. The final volume in each well was 200 μL. Each compound was tested in duplicate. The microtiter plates were incubated in an […] environment for 24 hours at 37° C. using the candle jar technique. Then the bacterial growth was tested by reading the plate with a SpectraMax iD5 plate reader (Molecular Devices, Inc.) at 600 nm. The MIC was defined as the lowest compound concentration that inhibited bacteria growth.

[9] = test system: E. coli N43; assay: MIC assay, CLSI broth microdilution in CAMH broth; assay type: cell-based, Escherichia coli
Procedure: as §1, §2

[10] = test system: E. coli ATCC 25922; assay: MIC assay, CLSI broth microdilution in CAMH broth; assay type: cell-based, Escherichia coli
Procedure: as §1, §2

Structure (SMILES)	Intrinsic MIC in CAMH [1]	Intrinsic MIC in CAMH [2]	Intrinsic MIC in CAMH [3]	Intrinsic MIC in CAMH [4]	Intrinsic MIC in CAMH [5]	Intrinsic MIC in CAMH [6]	Intrinsic MIC in CAMH [7]	MIC [8] [µg/mL]	Intrinsic MIC in CAMH [9]	Intrinsic MIC in CAMH [10]
Nc1nc(N)c2ccc3c(ccn3CC#Cc3ccccc3)c2n1 [Example 41, 7-(3-phenylprop-2-yn-1-yl)-7H-pyrrolo[2,3-h]quinazoline-2,4-diamine]	1¤	0.5¤	>64¤	<0.125¤	8¤	2¤	>64¤	8 (≈ 25.5 µM)	–	–
N#Cc1cc(F)ccc1-c1ccc(Cn2ccc3c4nc(N)nc(N)c4ccc32)cc1 [Example 37, 4′-((2,4-diamino-7H-pyrrolo[2,3-h]quinazolin-7-yl)methyl)-4-fluoro-[1,1′-biphenyl]-2-carbonitrile]	0.125¤	0.125¤	>64¤	0.25¤	>64¤	8¤	>64¤	1 (≈ 2.45 µM)	<0.125¤	–
N#Cc1ccccc1-c1ccc(Cn2ccc3c4nc(N)nc(N)c4ccc32)c(F)c1 [Example 39, 4′-((2,4-diamino-7H-pyrrolo[2,3-h]quinazolin-7-yl)methyl)-3′-fluoro-[1,1′-biphenyl]-2-carbonitrile]	≤0.063¤	≤0.063¤	>64¤	1¤	>64¤	8¤	>64¤	–	≤0.063¤	–
Nc1nc(N)c2ccc3c(ccn3Cc3ccccc3Br)c2n1 [Example 4, 7-(2-bromobenzyl)-7H-pyrrolo[2,3-h]quinazoline-2,4-diamine]	≤0.125¤	≤0.125¤	>64¤	<0.125¤	8¤	2¤	>64¤	2 (≈ 5.43 µM)	–	4¤
Nc1nc(N)c2ccc3c(ccn3CC3CCCCC3)c2n1 [Example 27, 7-(cyclohexylmethyl)-7H-pyrrolo[2,3-h]quinazoline-2,4-diamine]	≤0.125¤	≤0.125¤	>64¤	<0.125¤	4¤	2¤	>64¤	4 (≈ 13.5 µM)	–	4¤
N#Cc1ccccc1-c1ccc(Cn2ccc3c4nc(N)nc(N)c4ccc32)cc1F [Example 38, 4′-((2,4-diamino-7H-pyrrolo[2,3-h]quinazolin-7-yl)methyl)-2′-fluoro-[1,1′-biphenyl]-2-carbonitrile]	≤0.063¤	≤0.063¤	>64¤	<0.125¤	16¤	1¤	>64¤	0.125 (≈ 0.306 µM)	–	–
Nc1nc(N)c2ccc3c(ccn3Cc3ccc(C#Cc4ccccc4)cc3)c2n1 [Example 43, 7-(4-(phenylethynyl)benzyl)-7H-pyrrolo[2,3-h]quinazoline-2,4-diamine]	2¤	32¤	>64¤	>64¤	>64¤	>64¤	>64¤	> 64	32¤	–
N#Cc1ccccc1-c1ccc(Cn2ccc3c4nc(N)nc(N)c4cnc32)cc1 [Example 49, 4′-((2,4-diamino-7H-pyrrolo[3′,2′:5,6]pyrido[4,3-d]pyrimidin-7-yl)methyl)-[1,1′-biphenyl]-2-carbonitrile]	≤0.063¤	≤0.063¤	>64¤	0.5¤	>64¤	>64¤	>64¤	–	<0.125¤	–
Nc1nc(N)c2ccc3c(ccn3Cc3ccc(Br)cc3Br)c2n1 [Example 35, 7-(2,4-dibromobenzyl)-7H-pyrrolo[2,3-h]quinazoline-2,4-diamine]	1¤	0.5¤	>64¤	0.25¤	>64¤	8¤	>64¤	4 (≈ 8.95 µM)	<0.125¤	–
Nc1nc(N)c2ccc3c(ccn3Cc3cccc(C#Cc4ccccc4C(F)(F)F)c3)c2n1 [Example 45, 7-(3-((2-(trifluoromethyl)phenyl)ethynyl)benzyl)-7H-pyrrolo[2,3-h]quinazoline-2,4-diamine]	2¤	2¤	>64¤	>64¤	>64¤	>64¤	>64¤	–	32¤	–
Nc1nc(N)c2ccc3c(ccn3Cc3ccc(-c4ccccc4C(F)(F)F)cc3)c2n1 [Example 36, 7-((2′-(trifluoromethyl)-[1,1′-biphenyl]-4-yl)methyl)-7H-pyrrolo[2,3-h]quinazoline-2,4-diamine]	0.5¤	0.5¤	>64¤	1¤	>64¤	8¤	>64¤	8 (≈ 18.5 µM)	<0.125¤	–
Nc1nc(N)c2ccc3c(ccn3Cc3cccc(C#Cc4ccccc4)c3)c2n1 [Example 44, 7-(3-(phenylethynyl)benzyl)-7H-pyrrolo[2,3-h]quinazoline-2,4-diamine]	1¤	2¤	>64¤	32¤	>64¤	>64¤	>64¤	–	4¤	–
Nc1nc(N)c2ccc3c(ccn3Cc3cc(Br)ccc3F)c2n1 [Example 34, 7-(5-bromo-2-fluorobenzyl)-7H-pyrrolo[2,3-h]quinazoline-2,4-diamine]	≤0.063¤	≤0.063¤	>64¤	<0.125¤	64¤	2¤	64¤	16 (≈ 41.4 µM)	–	–
C#Cc1ccc(Cn2ccc3c4nc(N)nc(N)c4ccc32)cc1 [Example 42, 7-(4-ethynylbenzyl)-7H-pyrrolo[2,3-h]quinazoline-2,4-diamine]	≤0.063¤	≤0.063¤	>64¤	<0.125¤	32¤	4¤	32¤	8 (≈ 25.5 µM)	–	–
Nc1nc(N)c2cnc3c(ccn3Cc3cccc(Br)c3)c2n1 [Example 50, 7-(3-bromobenzyl)-7H-pyrrolo[3′,2′:5,6]pyrido[4,3-d]pyrimidine-2,4-diamine]	≤0.063¤	≤0.063¤	>64¤	1¤	>64¤	32¤	>64¤	–	≤0.063¤	–
